This is an account of results in patent US20260325654A1, “METHODS AND COMPOSITIONS FOR TARGETED PROTEIN DEGRADATION” (Ranok Therapeutics (Hangzhou) Co. Ltd., priority 2023, published 2026).

Test [1] concerns ASPC-1. The test can be described thus: CellTiter-Glo Reagent cancer cell line proliferation assay, ASPC-1. Format: cell-based. As to conditions: Homo sapiens, ASPC1; ASPC-1, KRAS(G12D) homozygous, 24 hr. An excerpt:
(§1) The following cancer cell lines were employed: • AsPC-1 human pancreatic adenocarcinoma, homozygous KRAS(G12D), (ATCC, #CRL-1682); A-427 human lung carcinoma, heterozygous KRAS(G12D), (ATCC, #HTB-53); AGS human gastric adenocarcinoma, heterozygous KRAS(G12D), (ATCC, #CRL-1739); GP2D human colon adenocarcinoma, heterozygous KRAS(G12D), (Sigma Aldrich, 95090714); SW1990 human pancreatic adenocarcinoma, homozygous KRAS(G12D), (ATCC, #CRL2172); LU65A human lung giant cell carcinoma, heterozygous KRAS(G12C), (JCRB Cell Bank, #JCRB0054); NCIH727 human lung carcinoid, heterozygous KRAS(G12V), (ATCC, #CRL-5815); MKN1 human gastric adenosquamous carcinoma KRAS (wt), (JCRB Cell Bank, #JCRB0252). Cell lines were cultured according to ATCC, JCRB and Sigma Aldrich recommendations.
(§2) Cells were plated in 96-well tissue culture plates at 4,000 cells/well and incubated at 37° C./5% CO2 for 24 hr in 100 μl of media. 3-fold serial dilutions of each test compound were prepared ranging from 20 μM to 1.02 nM. Cells were then treated with test compounds at various concentrations with a final concentration of 0.5% DMSO/well, and then incubated at 37° C./5% CO2 for 24 hr. 100 μl of CellTiter-Glo® Reagent (Promega Corporation, Madison, WI) was added to each well and processed according manufacturer's protocol. Results were analyzed and IC50-values were calculated in GraphPad 7 software.

In test [2] the test system is AGS. The test can be described thus: CellTiter-Glo Reagent cancer cell line proliferation assay, AGS. Format: cell-based, human. Particulars: Homo sapiens, 24 h, KRAS(G12D) heterozygous. In short, it runs like this:
(§3)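 Cells were seeded at 4,000 per well, grown 24 hr at 37° C./5% CO2, then exposed 24 hr to 3-fold dilutions from 20 μM to 1.02 nM (0.5% DMSO final). Viability was read with CellTiter-Glo luminescence, and IC50 values were calculated.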
Background: Cellular ATP, detected with luciferase, serves as a proxy for viable cell number.

The subject of test [3] is A427. The test can be described thus: CellTiter-Glo Reagent cancer cell line proliferation assay, A427. As to conditions: Homo sapiens, A-427; A427, KRAS(G12D) heterozygous, 24 hr. The class given is cell-based.
Text: as §1, §2

In test [4] the test system is SW1990. The test can be described thus: CellTiter-Glo Reagent cancer cell line proliferation assay, SW1990. The class given is cell-based. As to conditions: Homo sapiens; SW1990, KRAS(G12D) homozygous, 24 hr.
Text: as §1, §2

Test [5] concerns the target T1, KRAS(G12D) (Homo sapiens, UniProt P01116, G12D). The test can be described thus: cell-based. The class given is cell-based. Also on record: Cell lines SW1990 and GP2D that express KRAS(G12D); host or cells: SW1990. As to the method: Cell lines were cultured according to ATCC, JCRB and Sigma Aldrich recommendations.
(§4) Cells were then washed with cold PBS, aspirated and cold RIPA buffer containing a protease/phosphatase inhibitor cocktail was added to lyse cells. After centrifugation, the total protein concentrations of cell lysates were determined using the BCA protein assay. Samples were normalized for equivalent protein concentrations, 5× SDS-PAGE loading buffer added and denatured at 100° C. for 10 min. 20 μl of each sample/well was loaded on a SDS-PAGE gel and electrophoresed for 20 min at 80 V, then 120 V for 1.5 hr. Gels were then electroblotted to nitrocellulose membranes using a wet-transfer method at 250 mA for 2.5 hr. Membranes were incubated with blocking buffer for 1 hr and washed 3 times with TBST for 5 min. Membranes were then incubated with anti-KRAS (Sigma-Aldrich, #SAB1404011) and anti-β-Actin monoclonal antibodies (Cell Signaling Technology, #3700) diluted in blocking buffer at 4° C. overnight per the manufacturer's recommendations. After washing 3 times, blots were incubated with appropriately labeled secondary antibodies for 1 hr at room temperature and washed again. Fluorescence imaging and quantitation was performed using a LI-COR Odyssey. Results was analyzed using GraphPad Prism 7 software. Compound concentrations that induced KRAS degradation (DC50 and DCmax) were calculated using GraphPad Prism 7 software.
Target sequence in this assay (P01116 1-188 isoform P01116-2 G12D): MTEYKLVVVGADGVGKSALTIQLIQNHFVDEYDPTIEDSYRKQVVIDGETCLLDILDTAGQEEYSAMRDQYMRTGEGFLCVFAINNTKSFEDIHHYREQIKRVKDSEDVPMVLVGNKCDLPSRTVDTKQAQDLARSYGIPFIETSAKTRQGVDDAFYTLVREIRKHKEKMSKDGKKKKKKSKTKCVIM

Test [6] has as its target T1, KRAS(G12D). The test can be described thus: KRAS Western Blot Protein Degradation Assay, GP2D. Format: cell-based. Also on record: Cell lines SW1990 and GP2D that express KRAS(G12D); host or cells: GP2D. As to conditions: for Dmax: GP2d, read-out: WB data GP2D DMax; for DC50: read-out: WB data GP2D DC50, GP2D, KRAS degradation, 24 hr.
Text: as §1
as §4, with “Cell lines SW1990 and GP2D that express KRAS(G12D), LU65A that expresses KRAS(G12C), and NCIH727 that expresses KRAS(G12V) were seeded in 6- or 12-well tissue culture plates, and after 1 hr, test compounds were added at various concentrations and incubated at 37° C./5% CO2 for 24 hr. Cells” for “Cells”
(In western blotting, separated proteins are transferred to a membrane and probed.)
Target sequence in this assay (P01116 1-185 isoform P01116-2 G12D limits assumed): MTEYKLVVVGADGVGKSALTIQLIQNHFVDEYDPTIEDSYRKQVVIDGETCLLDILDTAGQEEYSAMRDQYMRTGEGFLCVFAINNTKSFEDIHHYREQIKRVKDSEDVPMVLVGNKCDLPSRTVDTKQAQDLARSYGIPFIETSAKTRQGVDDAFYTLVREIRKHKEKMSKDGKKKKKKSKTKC

In test [7] the test system is GP2D. As to the kind of experiment: CellTiter-Glo Reagent cancer cell line proliferation assay, GP2D. The class given is cell-based. Particulars: Homo sapiens, KRAS(G12D) heterozygous, 24 hr. In outline:
as §3

The target in test [8] is T2, KRAS(G12D)/SOS1 (Homo sapiens, UniProt P01116, G12D).
T2 construct: purchased Cisbio 63ADK000CB16PEG
As to the kind of experiment: KRAS(G12D)/SOS1 Homogeneous Time-Resolved Fluorescence (HTRF) Assay. Format: binding. Particulars: absence of GTP, 4° C., 3 hr. As to the method: 3-fold serial dilutions of each test compound were prepared ranging from 20 μM to 1.02 nM. The test compound was mixed and incubated with reaction components, incubated in a sealed plate at 4° C. for 3 hr and fluorescence was measured using a PerkinElmer Envision plate reader. The % inhibition and IC50 values (the concentration at which 50% of the maximal inhibition occurs) were calculated and plotted using GraphPad Prism 7 software.

Counter-ions that a name gives are not always drawn.

T2 sequence (P01116 1-188 isoform P01116-2 G12D): as the sequence (P01116 1-188 isoform P01116-2 G12D) above

A word on the IC50: it is the concentration that inhibits the measured activity by half. With `O=C1CCC(N2C(=O)c3ccc(CN4CCN([C@H]5CN6CCCC6(COc6nc(N7CC8CCC(C7)N8)c7cnc(-c8cc(O)cc9ccccc89)c(F)c7n6)C5)CC4)cc3C2=O)C(=O)N1` (some centres unmarked) [Compound 20], the concentration for half-maximal inhibition (IC50) in test [1], in test [2] and in test [3] was over 1000 nM throughout.
One may read the DC50 as the concentration giving 50% degradation. For the molecule `C#Cc1cccc2cc(O)cc(-c3ncc4c(N5CC6CCC(C5)N6C(=O)C(F)(F)F)nc(OCC5(CN6CCN(CC7CCN(c8ccc9c(c8)CN(C8CCC(=O)NC8=O)C9=O)CC7)CC6)CC5)nc4c3F)c12` (centres unmarked) [Compound 57], the IC50 was 100 to 1000 nM in test [4], 100 to 1000 nM in test [1], under 100 nM in test [2] and 100 to 1000 nM in test [3]. The Dmax in test [5] (SW1990, read-out: WB data SW1990 DMax) was in the range of 10 to 50%. Also, in test [5] (read-out: WB data SW1990 DC50, SW1990, KRAS degradation, 24 hr), the half-maximal degradation concentration (DC50) was over 1000 nM.
As to `C#Cc1c(F)ccc2cc(O)cc(-c3ncc4c(N5CC6CCC(C5)N6CC#N)nc(OCC5(CN6CCN(CC7CCN(c8ccc9c(c8)CN(C8CCC(=O)NC8=O)C9=O)CC7)CC6)CC5)nc4c3F)c12` (centres unmarked) [Compound 101], in test [6], the Dmax is over 50% and the DC50 is under 100 nM. This molecule showed an IC50 in test [7] of under 100 nM. This molecule returned an IC50 in test [2] of under 100 nM.
Consider `C#Cc1c(F)ccc2cc(O)cc(-c3nc(OC)c4c(N5CC6CCC(C5)N6CC#N)nc(OCC5(CN6CCN(CC7CCN(c8ccc9c(c8)CN(C8CCC(=O)NC8=O)C9=O)CC7)CC6)CC5)nc4c3F)c12` (centres unmarked) [Compound 100, 2-(3-(2-((1-((4-((1-(2-(2,6-dioxopiperidin-3-yl)-1-oxoisoindolin-5-yl)piperidin-4-yl)methyl)piperazin-1-yl)methyl)cyclopropyl)methoxy)-7-(8-ethynyl-7-fluoro-3-hydroxynaphthalen-1-yl)-8-fluoro-5-methoxypyrido[4,3-d]pyrimidin-4-yl)-3,8-diazabicyclo[3.2.1]octan-8-yl) acetonitrile formate], for which, in test [6], the Dmax was over 50%. For the same molecule, the DC50 in test [6] was under 100 nM. Moreover, the IC50 in test [7] and in test [2] was under 100 nM throughout.
`C#Cc1cccc2cccc(-c3ncc4c(N5CC6CCC(C5)N6)nc(OC[C@H]5CC[C@@H](CN6CCN(CC7CCN(c8cc9c(cc8F)C(=O)C(N8CCC(=O)NC8=O)C9=O)CC7)CC6)N5C)nc4c3F)c12` (some centres unmarked) [Compound 25]: the half-maximal inhibitory concentration (IC50) was under 100 nM in test [8], over 1000 nM in test [2] and over 1000 nM in test [3].
As for `[2H]C([2H])([2H])Oc1nc(-c2cc(O)cc3ccc(F)c(C#C)c23)c(F)c2nc(OCC3(CN4CCN(CC5CCN(c6ccc7c(c6)CN(C6CCC(=O)NC6=O)C7=O)CC5)CC4)CC3)nc(N3CC4CCC(C3)N4CC(F)(F)F)c12` (centres unmarked) [Compound 97], in test [6], the Dmax lay in the range of 10 to 50% and the DC50 is over 1000 nM. For the same molecule, the IC50 in test [7] was in the range of 100 to 1000 nM. For the same molecule, the IC50 in test [2] lay in the range of 100 to 1000 nM.
For the molecule `O=CO.[2H]C([2H])([2H])Oc1nc(-c2cc(O)cc3ccc(F)c(C#C)c23)c(F)c2nc(OCC3(CN4CCN(CC5CCN(c6ccc7c(c6)CN(C6CCC(=O)NC6=O)C7=O)CC5)CC4)CC3)nc(N3CC4CCC(C3)N4CC#N)c12` (centres unmarked) [Compound 94], the Dmax in test [6] is over 50%. Besides, the DC50 in test [6] is under 100 nM. Also, the IC50 in test [7] and in test [2] was under 100 nM throughout.
In the case of `CN1C[C@H](N2CCC(C(=O)NCCOCCOc3ccc4c(c3)C(=O)N(C3CCC(=O)NC3=O)C4=O)CC2)C[C@@H]1COc1nc(N2CC3CCC(C2)N3)c2cnc(-c3cc(O)cc4ccccc34)c(F)c2n1` (some centres unmarked) [Compound 24], the IC50 in test [2] and in test [3] was over 1000 nM each time.
Turning to `[2H]C([2H])([2H])Oc1nc(-c2cc(O)cc3ccc(F)c(C#C)c23)c(F)c2nc(OCC3(CN4CCN(CC5CCN(c6ccc7c(c6)CN(C6CCC(=O)NC6=O)C7=O)CC5)CC4)CC3)nc(N3CC4CCC(C3)N4CC(C)C)c12` (centres unmarked) [Compound 96], in test [6], the Dmax lay in the range of 10 to 50% and the DC50 is over 1000 nM. The half-maximal inhibitory concentration (IC50) in test [7] lay within 100 to 1000 nM. Also, in test [2], the IC50 is over 1000 nM.
Regarding `O=CO.[2H]C([2H])([2H])Oc1nc(-c2cc(O)cc3ccc(F)c(C#C)c23)c(F)c2nc(OCC3(CN4CCN(CC5CCN(c6ccc7c(c6)CN(C6CCC(=O)NC6=O)C7=O)CC5)CC4)CC3)nc(N3CC4CCC(C3)N4CCO)c12` (centres unmarked) [Compound 98], in test [6], the Dmax was over 50% and the DC50 is under 100 nM. In addition, in test [7], the IC50 was under 100 nM. In test [2], this molecule came in with an IC50 of under 100 nM.
As for `C#Cc1cccc2cc(O)cc(-c3ncc4c(N5CC6CCC(C5)N6)nc(OCC5(CN6CCN(C(=O)C7CCN(c8ccc9c(c8)CN(C8CCC(=O)NC8=O)C9=O)CC7)CC6)CC5)nc4c3F)c12` (centres unmarked) [Compound 58], the IC50 is 100 to 1000 nM in test [4], 100 to 1000 nM in test [1], under 100 nM in test [2] and over 1000 nM in test [3].
Turning to `C#Cc1cccc2cccc(-c3ncc4c(N5CC6CCC(C5)N6)nc(OC[C@H]5C[C@@H](N6CCN(CC7CCC(Nc8ccc9c(c8)C(=O)N(C8CCC(=O)NC8=O)C9=O)CC7)CC6)CN5C)nc4c3F)c12` (some centres unmarked) [Compound 47], the half-maximal inhibitory concentration (IC50) in test [4], in test [1], in test [2] and in test [3] was over 1000 nM throughout.
Consider `O=CO.[2H]C([2H])([2H])Oc1nc(-c2cc(O)cc3ccc(F)c(C#C)c23)c(F)c2nc(OCC3(CN4CCN(CC5CCN(c6ccc7c(c6)CN(C6CCC(=O)NC6=O)C7=O)CC5)CC4)CC3)nc(N3CC4CCC(C3)N4CCC#N)c12` (centres unmarked) [Compound 95], for which, in test [6], the Dmax is under 10% and the half-maximal degradation concentration (DC50) is over 1000 nM. The IC50 in test [7] was under 100 nM. In addition, the IC50 in test [2] lay in the range of 100 to 1000 nM.
